Measurements from patent publication US20030144233A1, “Conformation-activity relationship of apoptosis-inducing phosphodiester oligonucleotides” (priority 2001, published 2003).

System: Human Jurkat T cell leukemia cells
Assay: Analysis of apoptosis by Annexin V FITC / propidium iodide staining and flow cytometry
Type: cell-based
Settings: for Apoptosis (%) / % apoptosis: Jurkat T cells, oligonucleotides at final concentration of 53 μM; for Apoptosis (%): Table 1
Description: Human Jurkat T cell leukemia cells were obtained from the American Type Culture Collection (Rockville, Md.). The Jurkat T cells were maintained RPMI 1640 medium, supplemented with 10% heat-inactivated (56° C., 30 min) fetal bovine serum (all from Sigma Aldrich, Canada) in an atmosphere of 5% CO2 at 37° C. Cells were seeded at 2×10^5 cells/ml medium in 6-well float-bottomed tissue culture plates and incubated with oligonucleotides at a final concentration of 53 μM.
Apoptosis was measured by staining cells with Annexin V FITC and propidium iodide (PI) (BD Pharmingen, San Diego, Calif. USA) according to the manufacturer's instructions. Flow Cytometry (FCM) determined cellular fluorescence. The FCM and data analysis were carried out using a FACSCalibur instrument (excitation 488 nm, emission 530 nm for Annexin-V and 580 nm for PI) using the program CELLQuest.

Sequence	Apoptosis (%)	% apoptosis (Table 3) [%]	other results
CTGTCT	14	–	–
GTGTGT	–	67	–
TGGTTG	–	69	–
GGTTGG	–	66	–
CCGTCC	5	–	–
GGGCGG	17	–	–
GGGAG	–	–	ACTUAL % OF CELLS IN APOPTOSIS (new sequences tested in vitro after prediction, Table 4): 73%
AAGTAA	–	–	% apoptosis (Table 2): 23%
GGAAGG	–	59	–
GGGGGG	4	–	–
GGCCGG	–	–	% apoptosis (Table 2): 21%
TCGTTC	9.5	–	–
TGTGTG	–	66	–
ATGTAT	–	–	% apoptosis (Table 2): 37%
GGGTGG	–	50	apoptosis-inducing activity (phosphodiester versus phosphorothioate backbone): 50%
